Results on four compounds are retold here after patent US7078195B2, “Antibiotics AA-896” (Wyeth Holdings Corporation, priority 2001, dated 2006).

Holding throughout (test): Broth dilution MIC
Type in all cases: cell-based
What all share (details): Mueller-Hinton broth, 18 hours at 35° C.

In one experiment the test system is P. aeruginosa GC 2214. Here is the method:
(§1) The in vitro antibacterial activity of AA-896-A1, AA-896-A2, AA-896-A3, AA-896-A4, AA-896-A5, AA-896-B1, AA-896-B2, AA-896-B3, AA-896-B4, AA-896-B5, AA-896-B6, AA-896-B7, AA-896-C1, AA-896-C2, AA-896-C3, AA-896-C4, AA-896-D1, AA896-D2 and AA-896-D3 is determined against a spectrum of Gram-positive and Gram-negative bacteria by a standard broth dilution method. Serial dilution of the compounds are made in Mueller-Hinton broth and inoculated with a bacterial suspension. The lowest concentration of compound that inhibited the growth of a bacterial strain after 18 hours of incubation at 35° C. is reported as the minimal inhibitory concentration (MIC) for that strain.

A further experiment deals with M. morganii GC 4531. As to the method: as §1
The subject of another experiment is CNS GC 4547. Here is the method:
as §1

Another experiment deals with E. faecalis GC 4555. As to the method: as §1
For a further experiment, the system named is S. aureus GC 4536. As to the method: as §1
The subject of the next experiment is E. faecalis GC 242. As to the method: as §1
Another experiment has as its system CNS GC 4537. Here is the method: as §1
The test system of a further experiment is E. coli GC 3226. As to the method:
as §1

For the next experiment, the system named is E. coli GC 4560. Here is the method:
as §1

Another experiment relates to S. marcescens GC 4077. Here is the method:
as §1

The test system of another experiment is E. coli GC 2203. As to the method:
as §1

A further experiment concerns S. aureus GC 1131. As to the method:
as §1

For a further experiment, the system named is K. pneumoniae GC 4534. As to the method: as §1
For another experiment, the system named is P. aeruginosa GC 4532. As to the method:
as §1

The subject of a further experiment is E. faecalis GC 842. Here is the method:
as §1

For another experiment, the system named is E. cloacae GC 3783. Here is the method: as §1
The subject of a further experiment is CNS GC 4538. Here is the method: as §1
In a further experiment the test system is S. aureus GC 2216. As to the method:
as §1

A further experiment relates to E. coli GC 4559. Here is the method:
as §1

The subject of the next experiment is P. rettgeri GC 4530. As to the method: as §1

Consider `COC1C(OC(C(NCCCNC(=O)C(NC(=O)C(NC(=O)NC(C(=O)O)C(C)C)C2CCNC(=N)N2)C(O)C(C)C)C(=O)O)C2OC(n3ccc(=O)[nH]c3=O)C(O)C2O)OC(CN)C1O` [AA-896-C1, 5-O-[5-Amino-5-deoxy-2-O-methyl-β-D-ribofuranosyl]-6-[[3-[2-[2-[[(1-carboxy-2-methyl-propyl)carbamoyl]amino]-2-(hexahydro-2-iminopyrimidin-4-yl)acetamido]-3-hydroxy-4-methylpentanamido]propyl]amino]-1,6-dideoxy-1-(3,4-dihydro-2,4-dioxopyrimidin-1(2H)-yl)-β-D-heptofuranuronic acid], for which the “Antimicrobial Activity (MIC)” value in the experiment with P. aeruginosa GC 2214 is 32 mg/L; in the experiment with M. morganii GC 4531 it was more than 32 mg/L; with CNS GC 4547 it was more than 32 mg/L; in the experiment with E. faecalis GC 4555 it was more than 32 mg/L; in the experiment with S. aureus GC 4536, more than 32 mg/L; in the experiment with E. faecalis GC 242, more than 32 mg/L. The “Antimicrobial Activity (MIC)” value with CNS GC 4537 was more than 32 mg/L; with E. coli GC 3226, 32 mg/L; with E. coli GC 4560, 1 mg/L; in the experiment on S. marcescens GC 4077, more than 32 mg/L; in the experiment with E. coli GC 2203 it was 32 mg/L; in the experiment with S. aureus GC 1131 it was more than 32 mg/L. The “Antimicrobial Activity (MIC)” value was more than 32 mg/L in the experiment on K. pneumoniae GC 4534; more than 32 mg/L in the experiment on P. aeruginosa GC 4532; more than 32 mg/L in the experiment with E. faecalis GC 842; 32 mg/L in the experiment with E. cloacae GC 3783; more than 32 mg/L in the experiment on CNS GC 4538; more than 32 mg/L in the experiment with S. aureus GC 2216. Moreover, the “Antimicrobial Activity (MIC)” value with E. coli GC 4559 and in the experiment on P. rettgeri GC 4530 was more than 32 mg/L in each case.
For `COC1C(OC(C(NCCCNC(=O)C(NC(=O)C(NC(=O)NC(C(=O)O)C(C)C)C2CCNC(=N)N2)C(OC(=O)CCCCCC(C)C)C(C)C)C(=O)O)C2OC(n3ccc(=O)[nH]c3=O)C(O)C2O)OC(CN)C1O` [AA-896-B4, 5-O-[5-Amino-5-deoxy-2-O-methyl-β-D-ribofuranosyl]-6-[[3-[2-[2-[[(1-carboxy-2-methyl-propyl)carbamoyl]amino]-2-(hexahydro-2-iminopyrimidin-4-yl)acetamido]-4-methyl-3-[(7-methyloctanoyl)oxy]pentanamido]propyl]amino]-1,6-dideoxy-1-(3,4-dihydro-2,4-dioxopyrimidin-1(2H)-yl)-β-D-heptofuranuronic acid], the “Antimicrobial Activity (MIC)” value in the experiment on P. aeruginosa GC 2214 is 32 mg/L; with M. morganii GC 4531 it was more than 64 mg/L; in the experiment with CNS GC 4547, more than 64 mg/L; in the experiment with E. faecalis GC 4555 it was 64 mg/L; in the experiment with S. aureus GC 4536, 64 mg/L; in the experiment with E. faecalis GC 242, more than 64 mg/L. For the same compound, the “Antimicrobial Activity (MIC)” value in the experiment with CNS GC 4537 is 64 mg/L; in the experiment with E. coli GC 3226, 64 mg/L; in the experiment with E. coli GC 4560, “<=0.06 μg/ml”; in the experiment with S. marcescens GC 4077, more than 64 mg/L; with E. coli GC 2203, 32 mg/L; with S. aureus GC 1131 it was 64 mg/L. Also, the “Antimicrobial Activity (MIC)” value in the experiment on K. pneumoniae GC 4534 was 16 mg/L; with P. aeruginosa GC 4532, 64 mg/L; in the experiment on E. faecalis GC 842, more than 64 mg/L; with E. cloacae GC 3783 it was 8 mg/L; with CNS GC 4538 it was 32 mg/L; in the experiment with S. aureus GC 2216 it was 64 mg/L. In addition, the “Antimicrobial Activity (MIC)” value in the experiment with E. coli GC 4559 is 8 mg/L; in the experiment on P. rettgeri GC 4530 it was more than 64 mg/L.
With `CC(C)CC(NC(=O)C(NC(=O)NC(C(=O)O)C(C)C)C1CCNC(=N)N1)C(=O)NCCCNC(C(=O)O)C(OC1OC(CN)C(O)C1O)C1OC(n2ccc(=O)[nH]c2=O)C(O)C1O` [AA-896-D2, 5-O-[5-Amino-5-deoxy-β-D-ribofuranosyl]-6-[[3-[2-[2-[[(1-carboxy-2-methylpropyl)-carbamoyl]amino]-2-(hexahydro-2-iminopyrimidin-4-yl)acetamido]-4-methylpentanamido]-propyl]amino]-1,6-dideoxy-1-(3,4-dihydro-2,4-dioxopyrimidin-1(2H)-yl)-β-D-heptofuran-uronic acid], the “Antimicrobial Activity (MIC)” value was 32 mg/L with P. aeruginosa GC 2214; more than 32 mg/L in the experiment with M. morganii GC 4531; more than 32 mg/L in the experiment with CNS GC 4547; more than 32 mg/L in the experiment with E. faecalis GC 4555; more than 32 mg/L in the experiment with S. aureus GC 4536; more than 32 mg/L with E. faecalis GC 242. The “Antimicrobial Activity (MIC)” value with CNS GC 4537 is more than 32 mg/L; with E. coli GC 3226, 16 mg/L; with E. coli GC 4560 it was 0.25 mg/L; in the experiment with S. marcescens GC 4077, more than 32 mg/L; with E. coli GC 2203 it was 16 mg/L; in the experiment with S. aureus GC 1131, more than 32 mg/L. Moreover, the “Antimicrobial Activity (MIC)” value in the experiment on K. pneumoniae GC 4534 was more than 32 mg/L; with P. aeruginosa GC 4532, 32 mg/L; in the experiment with E. faecalis GC 842 it was more than 32 mg/L; in the experiment on E. cloacae GC 3783 it was 16 mg/L; in the experiment with CNS GC 4538, more than 32 mg/L; in the experiment on S. aureus GC 2216, more than 32 mg/L. The “Antimicrobial Activity (MIC)” value is 32 mg/L in the experiment on E. coli GC 4559 and more than 32 mg/L in the experiment on P. rettgeri GC 4530.
With `CC(C)C(NC(=O)NC(C(=O)NC(C(=O)NCCCNC(C(=O)O)C(O[C@@H]1O[C@H](CN)[C@@H](O)[C@H]1O)C1OC(n2ccc(=O)[nH]c2=O)C(O)C1O)C(O)C(C)C)C1CCNC(=N)N1)C(=O)O` (stereo partly drawn) [AA-896-C2, 5-O-[5-Amino-5-deoxy-β-D-ribofuranosyl]-6-[[3-[2-[2-[[(1-carboxy-2-methylpropyl)-carbamoyl]amino]-2-(hexahydro-2-iminopyrimidin-4-yl)acetamido]-3-hydroxy-4-methyl-pentanamido]propyl]amino]-1,6-dideoxy-1-(3,4-dihydro-2,4-dioxopyrimidin-1(2H)-yl)-β-D-heptofuranuronic acid], the “Antimicrobial Activity (MIC)” value was 32 mg/L in the experiment with P. aeruginosa GC 2214; more than 32 mg/L with M. morganii GC 4531; more than 32 mg/L with CNS GC 4547; more than 32 mg/L in the experiment with E. faecalis GC 4555; more than 32 mg/L in the experiment with S. aureus GC 4536; more than 32 mg/L in the experiment on E. faecalis GC 242. Moreover, the “Antimicrobial Activity (MIC)” value in the experiment on CNS GC 4537 is more than 32 mg/L; with E. coli GC 3226, 16 mg/L; in the experiment on E. coli GC 4560 it was 2 mg/L; in the experiment on S. marcescens GC 4077, more than 32 mg/L; in the experiment with E. coli GC 2203, 16 mg/L; in the experiment with S. aureus GC 1131 it was more than 32 mg/L. Also, the “Antimicrobial Activity (MIC)” value in the experiment with K. pneumoniae GC 4534 is more than 32 mg/L; with P. aeruginosa GC 4532, 32 mg/L; in the experiment with E. faecalis GC 842, more than 32 mg/L; in the experiment on E. cloacae GC 3783, 16 mg/L; in the experiment on CNS GC 4538, more than 32 mg/L; with S. aureus GC 2216, more than 32 mg/L. The “Antimicrobial Activity (MIC)” value with E. coli GC 4559 and with P. rettgeri GC 4530 was more than 32 mg/L throughout.
